# How the values were obtained:
# [1] = molecular target: T1, Human PDGFRβ, cytoplasmic domain (GST-PDGFRβ) (Homo sapiens, UniProt P09619); test: Human PDGFRβ biochemical inhibition assay (off-chip Mobility Shift Assay)
# T1 construct: made in house
# Description: Human PDGFRβ Biochemical Inhibition Assay
# The compounds described herein were tested for the ability to inhibit activity of PDGFRβ which was achieved via use of an off-chip Mobility Shift Assay (MSA). Human PDGFRβ, cytoplasmic domain [557-1106 (end) amino acids of accession number NP_002600.1 (SEQ ID NO: 3)] was expressed as N-terminal GST-fusion protein (88 kDa) using baculovirus expression system (SEQ ID NO: 4). GST-PDGFRβ was purified by using glutathione sepharose chromatography. Test compounds were dissolved in and diluted with dimethylsulfoxide (DMSO) to achieve 1 mM concentration. Then the solution was further diluted 25-fold with assay buffer to make the final test compound solution. The reference compound, Staurosporine, used as the assay positive control was prepared similarly. The 4× compound solution/substrate (CSKtide, 1000 nM)/ATP (Km ATP)/Mg Metal (5 mM) was prepared with kit buffer (20 mM HEPES, 0.01% Triton X-100, 5 mM DTT, pH 7.5), and 2× kinase solution was prepared with assay buffer (20 mM HEPES, 0.01% Triton X-100, 1 mM DTT, pH 7.5). The 5 μL of 4× compound solution, […] of 4× Substrate/ATP/Metal solution, and […] of 2× kinase solution were mixed and incubated in a well of polypropylene 384 well microplate for 1 hour at room temperature. […] of Termination Buffer (QuickScout Screening Assist MSA; Carna Biosciences) was added to the well. The reaction mixture was applied to LabChip™ system (Perkin Elmer), and the product and substrate peptide peaks were separated and quantitated. The kinase reaction was evaluated by the product ratio calculated from peak heights of product(P) and substrate(S) peptides (P/(P+S)). The readout value of reaction control (complete reaction mixture) was set as a 0% inhibition, and the readout value of background (Enzyme(−)) was set as a 100% inhibition, then the percent inhibition of each test solution was calculated.
# With respect to PDGFRβ activity: “+++” denotes an IC50 of less than 300 nM; “++” denotes an IC50 of from 300 nM to less than 1000 nM; and “+” denotes an IC50 of 1000 nM or more.
# [2] = molecular target: T2, Human PDGFRα, cytoplasmic domain (GST-PDGFRα) (Homo sapiens, UniProt P16234); test: Human PDGFRα biochemical inhibition assay (off-chip Mobility Shift Assay)
# T2 construct: made in house
# T2 sequence (P16234 550-1089 T674I): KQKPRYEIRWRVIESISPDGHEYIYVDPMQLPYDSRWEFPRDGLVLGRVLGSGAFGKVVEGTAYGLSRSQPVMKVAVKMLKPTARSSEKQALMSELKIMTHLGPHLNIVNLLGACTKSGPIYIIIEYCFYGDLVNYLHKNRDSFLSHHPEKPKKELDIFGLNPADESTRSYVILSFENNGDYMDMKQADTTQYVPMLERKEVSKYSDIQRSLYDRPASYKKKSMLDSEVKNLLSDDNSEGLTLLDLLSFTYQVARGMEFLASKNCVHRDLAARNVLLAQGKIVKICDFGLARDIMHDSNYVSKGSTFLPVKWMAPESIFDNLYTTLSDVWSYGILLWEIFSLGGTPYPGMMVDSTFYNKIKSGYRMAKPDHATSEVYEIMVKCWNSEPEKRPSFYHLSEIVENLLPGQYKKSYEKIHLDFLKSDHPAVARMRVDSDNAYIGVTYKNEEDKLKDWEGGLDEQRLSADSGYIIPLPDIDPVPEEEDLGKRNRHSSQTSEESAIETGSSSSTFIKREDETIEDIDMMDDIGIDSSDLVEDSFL
# T1 sequence (P09619 with tags, fused parts or gaps): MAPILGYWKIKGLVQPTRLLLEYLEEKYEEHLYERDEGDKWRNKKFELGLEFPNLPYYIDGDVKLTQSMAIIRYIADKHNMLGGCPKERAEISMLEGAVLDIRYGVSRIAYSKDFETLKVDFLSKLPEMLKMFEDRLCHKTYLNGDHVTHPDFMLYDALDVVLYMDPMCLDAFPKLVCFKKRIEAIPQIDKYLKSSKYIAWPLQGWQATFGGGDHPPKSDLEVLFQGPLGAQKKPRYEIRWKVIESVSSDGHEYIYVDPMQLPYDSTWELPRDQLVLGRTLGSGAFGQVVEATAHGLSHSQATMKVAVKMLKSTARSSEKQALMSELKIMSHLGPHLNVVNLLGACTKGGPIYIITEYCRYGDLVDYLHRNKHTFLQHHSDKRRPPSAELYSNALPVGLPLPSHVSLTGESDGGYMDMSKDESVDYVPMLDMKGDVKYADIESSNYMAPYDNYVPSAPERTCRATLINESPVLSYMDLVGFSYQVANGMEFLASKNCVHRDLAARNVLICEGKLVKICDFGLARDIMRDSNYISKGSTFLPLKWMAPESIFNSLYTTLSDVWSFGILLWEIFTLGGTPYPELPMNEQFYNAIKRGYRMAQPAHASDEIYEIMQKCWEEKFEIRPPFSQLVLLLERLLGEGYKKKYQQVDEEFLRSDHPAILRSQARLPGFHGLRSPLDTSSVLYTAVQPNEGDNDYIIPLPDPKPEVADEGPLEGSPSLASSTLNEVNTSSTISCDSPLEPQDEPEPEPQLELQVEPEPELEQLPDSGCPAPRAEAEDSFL
IC50 [1],IC50 [2],Compound
300 to 1000 nM,< 300 nM,"CCn1cc2ncc(N[C@@H](C)c3cccc(NC(=O)Cc4cccc(F)c4F)c3)nc2n1 [Compound 454, (S)-2-(2,3-difluorophenyl)-N-(3-(1-((2-ethyl-2H-pyrazolo[3,4-b]pyrazin-6-yl)amino)ethyl)phenyl)acetamide]"
≥ 1000 nM,< 300 nM,"CCn1cc2ncc(N[C@@H](C)c3cc(NC(=O)Cc4ccc(C)nc4)ccc3C)nc2n1 [Compound 664, (S)-N-(3-(1-((2-ethyl-2H-pyrazolo[3,4-b]pyrazin-6-yl)amino)ethyl)-4-methylphenyl)-2-(6-methylpyridin-3-yl) acetamide]"
≥ 1000 nM,≥ 1000 nM,"CCc1ccc(NC(=O)c2ccc(C(F)(F)F)nc2)cc1[C@H](C)Nc1cnc2cn(CC)nc2n1 [Compound 516, (S)-N-(4-ethyl-3-(1-((2-ethyl-2H-pyrazolo[3,4-b]pyrazin-6-yl)amino)ethyl)phenyl)-6-(trifluoromethyl)nicotinamide]"
< 300 nM,< 300 nM,"C[C@H](Nc1cnc2[nH]ccc2n1)c1cc(NC(=O)c2ccc(OC(F)F)nc2)ccc1F [Compound 596, (S)-N-(3-(1-((5H-pyrrolo[2,3-b]pyrazin-2-yl)amino)ethyl)-4-fluorophenyl)-6-(difluoromethoxy)nicotinamide]"
≥ 1000 nM,300 to 1000 nM,"CCn1cc2ncc(N[C@@H](C)c3cccc(NC(=O)Cc4ccc(C(C)C)cn4)c3)nc2n1 [Compound 709, (S)-N-(3-(1-((2-ethyl-2H-pyrazolo[3,4-b]pyrazin-6-yl)amino)ethyl)phenyl)-2-(5-isopropylpyridin-2-yl)acetamide]"
300 to 1000 nM,< 300 nM,"CCn1cc2ncc(N[C@@H](C)c3cccc(NC(=O)c4ccc(CN5CCC(F)(F)CC5)c(C)c4)c3)nc2n1 [Compound 476, (S)-4-((4,4-difluoropiperidin-1-yl)methyl)-N-(3-(1-((2-ethyl-2H-pyrazolo[3,4-b]pyrazin-6-yl)amino)ethyl)phenyl)-3-methylbenzamide]"

# The remaining lines, values behind:
Compound,IC50 [1],IC50 [2]
"Cc1cncc(C(=O)Nc2cccc([C@H](C)Nc3cnc4cc(C)sc4n3)c2)c1 [Compound 19, (S)-5-methyl-N-(3-(1-((6-methylthieno[2,3-b]pyrazin-3-yl)amino)ethyl)phenyl)nicotinamide]",< 300 nM,< 300 nM
"CCn1cc2ncc(N[C@@H](C)c3cccc(NC(=O)c4ccc(CN5CCN(C)CC5)c(C(F)(F)F)c4)c3)nc2n1 [Compound 423, (S)-N-(3-(1-((2-ethyl-2H-pyrazolo[3,4-b]pyrazin-6-yl)amino)ethyl)phenyl)-4-((4-methylpiperazin-1-yl)methyl)-3-(trifluoromethyl)benzamide]",< 300 nM,< 300 nM
"C[C@H](Nc1cnc2cnn(C)c2n1)c1cccc(NC(=O)c2ccc3c(c2)CCC(=O)O3)c1 [Compound 72, (S)-N-(3-(1-((1-methyl-1H-pyrazolo[3,4-b]pyrazin-6-yl)amino)ethyl)phenyl)-2-oxochromane-6-carboxamide]",< 300 nM,< 300 nM
"CCn1cc2ncc(N[C@@H](C)c3cccc(NC(=O)c4ccc(C(F)(F)F)c(C)c4)c3)nc2n1 [Compound 439, (S)-N-(3-(1-((2-ethyl-2H-pyrazolo[3,4-b]pyrazin-6-yl)amino)ethyl)phenyl)-3-methyl-4-(trifluoromethyl)benzamide]",< 300 nM,< 300 nM
"CCn1cc2ncc(N[C@@H](C)c3cccc(NC(=O)c4cnc(OCC5CC5)c(C)c4)c3)nc2n1 [Compound 315, (S)-6-(cyclopropylmethoxy)-N-(3-(1-((2-ethyl-2H-pyrazolo[3,4-b]pyrazin-6-yl)amino)ethyl)phenyl)-5-methylnicotinamide]",< 300 nM,< 300 nM
"Cc1ccc(C(=O)Nc2cccc([C@H](C)Nc3cnc4cnn(C)c4n3)c2)s1 [Compound 133, (S)-5-methyl-N-(3-(1-((1-methyl-1H-pyrazolo[3,4-b]pyrazin-6-yl)amino)ethyl)phenyl)thiophene-2-carboxamide]",< 300 nM,< 300 nM
